MEC data for 28 compounds are collected here from patent publication US9776997B2, “3-aryl-substituted imidazo[1,2-A]pyridines and their use” (Bayer Pharma Aktiengesellschaft, priority 2013, dated 2017).

Values joined by “and” are separate entries in the source; they are usually repeats but may differ in a detail not shown here. Identical values can stand only once. Counter-ions that a name gives are not always drawn.

The experiment deals with T1, recombinant guanylate cyclase reporter cell line (Rattus norvegicus, UniProt P19686+P20595).
T1 construct: expressed in transfected cells; host or cells: recombinant reporter cell line
T1 sequence (P19686 1-690): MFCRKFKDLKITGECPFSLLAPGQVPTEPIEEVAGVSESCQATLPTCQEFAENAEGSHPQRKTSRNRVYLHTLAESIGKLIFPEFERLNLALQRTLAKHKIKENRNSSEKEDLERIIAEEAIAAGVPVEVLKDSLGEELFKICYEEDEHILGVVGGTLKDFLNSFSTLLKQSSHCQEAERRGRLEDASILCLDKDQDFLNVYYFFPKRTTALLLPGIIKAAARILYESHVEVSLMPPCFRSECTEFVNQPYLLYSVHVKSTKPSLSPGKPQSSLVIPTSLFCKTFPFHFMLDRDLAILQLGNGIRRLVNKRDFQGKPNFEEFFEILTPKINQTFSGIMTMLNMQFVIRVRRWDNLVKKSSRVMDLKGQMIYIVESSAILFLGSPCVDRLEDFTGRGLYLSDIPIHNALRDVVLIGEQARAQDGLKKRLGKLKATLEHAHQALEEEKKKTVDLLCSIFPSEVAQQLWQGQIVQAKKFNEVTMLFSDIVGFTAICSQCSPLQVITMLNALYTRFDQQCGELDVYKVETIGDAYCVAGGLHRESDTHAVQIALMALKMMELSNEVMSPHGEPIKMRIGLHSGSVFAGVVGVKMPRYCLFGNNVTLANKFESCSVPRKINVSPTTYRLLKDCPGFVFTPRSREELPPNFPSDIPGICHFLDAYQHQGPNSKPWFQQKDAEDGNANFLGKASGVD
T1 sequence (P20595 1-619): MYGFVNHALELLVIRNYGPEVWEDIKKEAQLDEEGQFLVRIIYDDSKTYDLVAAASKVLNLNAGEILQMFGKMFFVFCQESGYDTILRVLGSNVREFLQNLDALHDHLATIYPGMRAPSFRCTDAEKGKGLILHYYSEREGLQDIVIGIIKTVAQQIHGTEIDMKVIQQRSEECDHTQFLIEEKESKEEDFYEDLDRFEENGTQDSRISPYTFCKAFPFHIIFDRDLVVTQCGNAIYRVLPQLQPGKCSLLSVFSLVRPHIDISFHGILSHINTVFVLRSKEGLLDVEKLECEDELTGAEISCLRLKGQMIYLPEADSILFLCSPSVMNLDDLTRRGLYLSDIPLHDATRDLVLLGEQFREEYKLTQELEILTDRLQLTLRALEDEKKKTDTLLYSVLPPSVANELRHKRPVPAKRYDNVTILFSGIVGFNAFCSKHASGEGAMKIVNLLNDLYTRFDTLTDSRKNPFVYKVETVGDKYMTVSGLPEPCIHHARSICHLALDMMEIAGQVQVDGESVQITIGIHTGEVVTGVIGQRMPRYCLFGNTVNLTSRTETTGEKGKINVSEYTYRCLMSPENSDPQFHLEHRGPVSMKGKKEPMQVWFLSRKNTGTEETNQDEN
Description: Effect on a recombinant guanylate cyclase reporter cell line. It is filed as cell-based. As to conditions: MEC = minimum effective concentration; in some cases mean values for individual determinations. How it is done: B-2. Effect on a Recombinant Guanylate Cyclase Reporter Cell Line
The cellular effect of the inventive compounds is determined using a recombinant guanylate cyclase reporter cell line, as described in F. Wunder et al., Anal. Biochem. 339, 104-112 (2005).
Representative MEC values (MEC=minimum effective concentration) for the inventive compounds are shown in the table below (in some cases as mean values for individual determinations): […]
Take `Cc1nc2c(OCc3c(F)cccc3F)cccn2c1-c1nc(N)n(CC(F)(F)F)n1` [Example 125, 3-{8-[(2,6-Difluorobenzyl)oxy]-2-methylimidazo[1,2-a]pyridin-3-yl}-1-(2,2,2-trifluoroethyl)-1H-1,2,4-triazol-5-amine]: the MEC was found to be 3.0 µM.

With `Cc1nc2c(OCc3c(F)cccc3F)cccn2c1-c1cnn(Cc2ccccc2)c1` [Example 1, 3-(1-Benzyl-1H-pyrazol-4-yl)-8-[(2,6-difluorobenzyl)oxy]-2-methylimidazo[1,2-a]pyridine], the MEC is 0.065 µM.

`Cc1cc(OCc2c(F)cccc2F)c2nc(C)c(-c3cnn(CC(C)(C)O)c3)n2c1` [Example 116, 1-(4-{8-[(2,6-Difluorobenzyl)oxy]-2,6-dimethylimidazo[1,2-a]pyridin-3-yl}-1H-pyrazol-1-yl)-2-methylpropan-2-ol]: the MEC worked out at 0.01 µM.

`Cc1cc(OCc2c(F)cccc2F)c2nc(C)c(-c3cnn(CCS(C)(=O)=O)c3)n2c1` [Example 96, 8-[(2,6-Difluorobenzyl)oxy]-2,6-dimethyl-3-{1-[2-(methylsulphonyl)ethyl]-1H-pyrazol-4-yl}imidazo[1,2-a]pyridine]: the MEC came to 0.065 µM.

Take `Cc1cc(OCc2c(F)cccc2F)c2nc(C)c(-c3cnn(CCCC#N)c3)n2c1` [Example 100, 4-(4-{8-[(2,6-Difluorobenzyl)oxy]-2,6-dimethylimidazo[1,2-a]pyridin-3-yl}-1H-pyrazol-1-yl)butanonitrile]: the MEC is 0.03 µM.

`Cc1nc2c(OCc3c(F)cccc3F)cccn2c1-c1ccc(C(=O)NC2CC2)cc1` [Example 9, N-cyclopropyl-4-{8-[(2,6-difluorobenzyl)oxy]-2-methylimidazo[1,2-a]pyridin-3-yl}benzamide]: the MEC amounted to 0.3 µM.

Consider `Cc1cc(OCc2c(F)cccc2F)c2nc(C)c(-c3cn[nH]n3)n2c1` [Example 82, 8-[(2,6-difluorobenzyl)oxy]-2,6-dimethyl-3-(2H-1,2,3-triazol-4-yl)imidazo[1,2-a]pyridine], for which the MEC amounted to 0.1 µM.

Take `Cc1nc2c(OCC3CCCCC3)cccn2c1-c1nnc(-c2cccnc2)o1` [Example 64]: the MEC turned out to be 3.0 µM.

Consider `Cc1cc(OCc2ncccc2F)c2nc(C)c(-c3cnn(CC(C)(C)N)c3)n2c1` [Example 85, 1-(4-{8-[(3-Fluoropyridin-2-yl)methoxy]-2,6-dimethylimidazo[1,2-a]pyridin-3-yl}-1H-pyrazol-1-yl)-2-methylpropan-2-amine], for which the MEC came to 3.0 µM.

With `Cc1nc2c(OCc3c(F)cccc3F)cccn2c1-c1cccc(C(N)=O)c1` [Example 7, 3-{8-[(2,6-difluorobenzyl)oxy]-2-methylimidazo[1,2-a]pyridin-3-yl}benzamide], the MEC was determined as 0.1 µM.

For the compound `Cc1nc2c(OCc3c(F)cccc3F)cccn2c1-c1ccc(Oc2ccccc2)cc1` [Example 31, 8-[(2,6-difluorobenzyl)oxy]-2-methyl-3-(4-phenoxyphenyl)imidazo[1,2-a]pyridine], the MEC was 3.0 µM.

As to `Cc1cc(OCc2c(F)cccc2F)c2nc(C)c(-c3cnn(CCCc4nnn[nH]4)c3)n2c1` [Example 101, 8-[(2,6-Difluorobenzyl)oxy]-2,6-dimethyl-3-{1-[3-(1H-tetrazol-5-yl)propyl]-1H-pyrazol-4-yl}imidazo[1,2-a]pyridine], the MEC was 0.1 µM.

Consider `CCOc1cc(-c2c(C)nc3c(OCc4c(F)cccc4F)cc(C)cn23)sc1N` [Example 139, 5-{8-[(2,6-Difluorobenzyl)oxy]-2,6-dimethylimidazo[1,2-a]pyridin-3-yl}-3-ethoxythiophen-2-amine], for which the MEC amounted to 0.1 µM.

`Cc1nc2c(OCC3CCCCC3)cccn2c1-c1nnc(C2CC2)o1` [Example 74]: the MEC amounted to 3.0 µM.

Turning to `Cc1cc(OCc2c(F)cccc2F)c2nc(C)c(-c3cn(CC(C)(C)N)nc3C)n2c1.O=CO` [Example 127, 1-(4-{8-[(2,6-Difluorobenzyl)oxy]-2,6-dimethylimidazo[1,2-a]pyridin-3-yl}-3-methyl-1H-pyrazol-1-yl)-2-methylpropan-2-amine formate], the MEC worked out at 0.3 µM.

On to `Cc1cc(OCc2c(F)cccc2F)c2nc(C)c(-c3cnn(CC(C)(C)N)n3)n2c1` [Example 83, 1-(4-{8-[(2,6-Difluorobenzyl)oxy]-2,6-dimethylimidazo[1,2-a]pyridin-3-yl}-2H-1,2,3-triazol-2-yl)-2-methylpropan-2-amine], for which the MEC was 0.3 µM.

As for `Cc1cc(OCc2c(F)cccc2F)c2nc(C)c(-c3cnn(CC(C)(C)N)c3)n2c1.Cl` [Example 117, 1-(4-{8-[(2,6-Difluorobenzyl)oxy]-2,6-dimethylimidazo[1,2-a]pyridin-3-yl}-1H-pyrazol-1-yl)-2-methylpropan-2-amine hydrochloride], the MEC turned out to be 0.1 µM.

On to `COCCN(C)Cc1cc(-c2c(C)nc3c(OCc4c(F)cccc4F)cccn23)ccc1OC` [Example 27, N-(5-{8-[(2,6-difluorobenzyl)oxy]-2-methylimidazo[1,2-a]pyridin-3-yl}-2-methoxybenzyl)-2-methoxy-N-methylethanamine], for which the MEC was 1.0 µM.

For the compound `Cc1nc2c(OCc3c(F)cccc3F)cccn2c1-c1nnc(N)o1` [Example 58, 5-{8-[(2,6-Difluorobenzyl)oxy]-2-methylimidazo[1,2-a]pyridin-3-yl}-1,3,4-oxadiazole-2-amine], the MEC was 3.0 µM.

In the case of `Cc1nc2c(OCc3c(F)cccc3F)cccn2c1-c1cnn(C)c1C` [Example 56], the MEC worked out at 3.0 µM.

With `CSc1cccc(-c2c(C)nc3c(OCc4c(F)cccc4F)cccn23)c1` [Example 33, 8-[(2,6-difluorobenzyl)oxy]-2-methyl-3-[3-(methylsulphanyl)phenyl]imidazo[1,2-a]pyridine], the MEC was 3.0 µM.

As for `Cc1cc(OCc2c(F)cccc2F)c2nc(C)c(-c3cc(CC(C)(C)N)n[nH]3)n2c1` [Example 143, 1-(3-{8-[(2,6-Difluorobenzyl)oxy]-2,6-dimethylimidazo[1,2-a]pyridin-3-yl}-1H-pyrazol-5-yl)-2-methylpropan-2-amine], the MEC amounted to 1.0 µM.

As to `Cc1cc(OCc2c(F)cccc2F)c2nc(C)c(-c3cnn(CCC(=O)O)c3)n2c1` [Example 107, 3-(4-{8-[(2,6-Difluorobenzyl)oxy]-2,6-dimethylimidazo[1,2-a]pyridin-3-yl}-1H-pyrazol-1-yl)propanoic acid], the MEC turned out to be 0.065 µM.

As for `Cc1cc(OCc2c(F)cccc2F)c2nc(C)c(-c3cncc(C(=O)NC4CC4)c3)n2c1` [Example 78, N-Cyclopropyl-5-{8-[(2,6-difluorobenzyl)oxy]-2,6-dimethylimidazo[1,2-a]pyridin-3-yl}nicotinamide trifluoroacetate], the MEC came to 0.1 µM.

On to `CCOC(=O)c1cccc(-c2c(C)nc3c(OCc4c(F)cccc4F)cccn23)c1` [Example 18, Ethyl 3-{8-[(2,6-difluorobenzyl)oxy]-2-methylimidazo[1,2-a]pyridin-3-yl}benzoate], for which the MEC turned out to be 1.0 µM.

In the case of `Cc1cc(OCc2c(F)cccc2F)c2nc(C)c(-c3ncc(C)o3)n2c1` [Example 137, 8-[(2,6-Difluorobenzyl)oxy]-2,6-dimethyl-3-(5-methyl-1,3-oxazol-2-yl)imidazo[1,2-a]pyridine], the MEC stood at 3.0 µM.

As to `Cc1nc2c(OCc3c(F)cccc3F)cccn2c1-c1cccc(CN2CCCC2)c1` [Example 15, 8-[(2,6-difluorobenzyl)oxy]-2-methyl-3-[3-(pyrrolidin-1-ylmethyl)phenyl]imidazo[1,2-a]pyridine], the MEC was determined as 0.065 µM.

Take `Cc1cc(OCc2c(F)cccc2F)c2nc(C)c(-c3cnn(CCc4c(C)n[nH]c4C)c3)n2c1` [Example 99, 8-[(2,6-Difluorobenzyl)oxy]-3-{1-[2-(3,5-dimethyl-1H-pyrazol-4-yl)ethyl]-1H-pyrazol-4-yl}-2,6-dimethylimidazo[1,2-a]pyridine]: the MEC is 0.03 µM and 0.1 µM.
